Data reported in patent US11965039B2, “Compstatin analogues and their medical uses” (priority 2018, dated 2024).
pIC50: −log10 of the molar value. Starred links: 1 amine or outer side, 2 acyl side, 3 side chain; linkers in the order of their positions; H or OH if unused. Positions of bridges follow the written chain, without caps; N, C: chain ends. Non-standard residues stand in square brackets, D forms with d. Residues, ends and D or L forms follow the SMILES beside them. Groups on a side chain read outwards from the residue. *: point of attachment. Trp(1-Me) = Cn1cc(C[C@H](N)C(=O)O)c2ccccc21; C18 diacid = O=C(O)CCCCCCCCCCCCCCCCC(=O)*; C16 diacid = O=C(O)CCCCCCCCCCCCCCC(=O)*; γGlu = O=C(O)[C@H](CCC(=O)[*:2])N[*:1]; AEEA = NCCOCCOCC(=O)O; Sar = CNCC(=O)O

test system: classical complement pathway; assay: In vitro haemolysis assay (inhibition of classical complement pathway); format: cell-based, human; details: human serum, sensitized sheep red blood cells; Table 3, given as upper bounds; read-out: IC50, inhibition of hemolysis
Description: The in vitro effect of the compounds of the present invention was assessed by measuring their inhibitory effect of the classical complement pathway in a haemolysis assay. Briefly, compounds of the present invention and reference compounds were dissolved in DMSO and diluted in Tris/Casein Assay Buffer (10 mM Tris, 145 mM NaCl, 0.5 mM MgCl2, 0.15 mM CaCl2), and 0.1% W/V Casein, adjusted to pH 7.4) as 9-point serial dilutions in a 96 well plate. Sensitized sheep red blood cells (RBC) coated with rabbit anti-sheep erythrocyte antiserum (Complement Technology, Inc., TX, USA) were washed in Tris/Casein Assay Buffer. […] from each well of diluted compound was added to a 96-well plate containing 50 μL diluted human serum (Complement Technology, Inc., TX, USA) and incubated for 15 minutes at room temperature. The serum dilution factor was optimized for every serum batch to obtain 70-90% of maximal haemolysis using the protocol. Then 50 μL sensitized sheep red blood cells were added to all wells (10^7 per well). After 30 minutes of incubation at 37 QC with gentle agitation, the reaction was stopped by addition of 50 μL Tris STOP Buffer per well (10 mM EDTA, 10 mM Tris, 145 mM NaCl adjusted to pH 7.4). The RBCs were then removed by centrifugation and the resulting supernatant measured for hemolysis by absorbance at 405 nm. The response was normalized relative to a positive and negative control (vehicle) to calculate the IC50 from the concentration response curve using the 4-parameter logistic (4PL) nonlinear model for curve fitting.

Compound	pIC50
CC[C@H](C)[C@@H]1NC(=O)[C@@H](NC(=O)[C@H](Cc2ccc(O)cc2)NC(C)=O)CSSC[C@@H](C(=O)N[C@H](C(N)=O)[C@@H](C)O)NC(=O)[C@H](CCCNC(=N)N)NC(=O)[C@H](Cc2c[nH]cn2)NC(=O)[C@H](CCC(=O)O)NC(=O)CNC(=O)[C@H](Cc2c[nH]c3ccccc23)NC(=O)[C@H](CC(=O)O)NC(=O)[C@H](CCC(N)=O)NC(=O)[C@H](Cc2c[nH]c3ccccc23)NC1=O [Compound 9] (Ac-YCIWQDWGEHRCT-NH2; disulfide 2-12)	> 7.00
CC[C@H](C)[C@@H]1NC(=O)[C@@H](NC(=O)[C@H](Cc2ccccc2)NC(=O)[C@H](CCC(=O)O)NC(=O)[C@H](CO)NC(C)=O)CSSC[C@@H](C(=O)N(C)CC(=O)N[C@@H](CCC(=O)O)C(=O)NCC(=O)N[C@@H](CCC(=O)O)C(=O)NCCOCCOCC(=O)NCCOCCOCC(=O)N[C@@H](CCCCNC(=O)CC[C@H](NC(=O)CNC(=O)CC[C@H](NC(=O)CCCCCCCCCCCCCCCCC(=O)O)C(=O)O)C(=O)O)C(N)=O)NC(=O)[C@H](CCCNC(=N)N)NC(=O)[C@H](Cc2c[nH]cn2)NC(=O)[C@H](CCC(=O)O)NC(=O)CNC(=O)[C@H](Cc2c[nH]c3ccccc23)NC(=O)[C@H](CC(=O)O)NC(=O)[C@H](CCC(N)=O)NC(=O)[C@H](Cc2cn(C)c3ccccc23)NC1=O [Compound 123] (Ac-SEFCI[Trp(1-Me)]QDWGEHRC[Sar]EGE[AEEA][AEEA]K([γGlu-Gly-γGlu-C18 diacid])-NH2; disulfide 4-14)	> 7.00
CC[C@H](C)[C@H](NC(=O)CNC(=O)[C@H](CCCCN)NC(=O)[C@H](CCC(=O)O)NC(C)=O)C(=O)N[C@H]1CSSC[C@@H](C(=O)N[C@H](C(=O)N[C@@H](CCC(=O)O)C(=O)N[C@@H](CCCCN)C(=O)N2CCC[C@H]2C(N)=O)[C@@H](C)O)NC(=O)[C@H](CCCNC(=N)N)NC(=O)[C@H](Cc2c[nH]cn2)NC(=O)[C@H](CCC(=O)O)NC(=O)CNC(=O)[C@H](Cc2c[nH]c3ccccc23)NC(=O)[C@H](CC(=O)O)NC(=O)[C@H](CCC(N)=O)NC(=O)[C@H](Cc2c[nH]c3ccccc23)NC(=O)[C@H]([C@@H](C)CC)NC1=O [Compound 38] (Ac-EKGICIWQDWGEHRCTEKP-NH2; disulfide 5-15)	> 6.60
CC[C@H](C)[C@@H]1NC(=O)[C@@H](NC(=O)[C@H](Cc2ccc(O)cc2)NC(=O)[C@H](CCC(=O)O)NC(=O)[C@H](CO)NC(C)=O)CSSC[C@@H](C(=O)N(C)CC(=O)N[C@@H](CCC(=O)O)C(=O)NCC(=O)N[C@@H](C)C(=O)N[C@@H](CCCCNC(=O)COCCOCCNC(=O)CC[C@H](NC(=O)COCCOCCNC(=O)CNC(=O)CC[C@H](NC(=O)CCCCCCCCCCCCCCCCC(=O)O)C(=O)O)C(=O)O)C(N)=O)NC(=O)[C@H](CCCNC(=N)N)NC(=O)[C@H](Cc2c[nH]cn2)NC(=O)[C@H](CCC(=O)O)NC(=O)CNC(=O)[C@H](Cc2c[nH]c3ccccc23)NC(=O)[C@H](CCC(=O)O)NC(=O)[C@H](CCC(N)=O)NC(=O)[C@H](Cc2cn(C)c3ccccc23)NC1=O [Compound 122] (Ac-SEYCI[Trp(1-Me)]QEWGEHRC[Sar]EGAK([AEEA-γGlu-AEEA-Gly-γGlu-C18 diacid])-NH2; disulfide 4-14)	> 6.30
CC[C@H](C)[C@H](NC(=O)[C@H](C)NC(=O)[C@H](CO)NC(=O)CNC(=O)[C@H](CCC(=O)O)NC(C)=O)C(=O)N[C@H]1CSSC[C@@H](C(=O)N[C@H](C(=O)N[C@@H](CCC(=O)O)C(=O)NCC(=O)N[C@@H](CCCCNC(=O)CC[C@H](NC(=O)CCCCCCCCCCCCCCC(=O)O)C(=O)O)C(N)=O)[C@@H](C)O)NC(=O)[C@H](CCCNC(=N)N)NC(=O)[C@H](Cc2c[nH]cn2)NC(=O)[C@H](CCC(=O)O)NC(=O)CNC(=O)[C@H](Cc2c[nH]c3ccccc23)NC(=O)[C@H](CC(=O)O)NC(=O)[C@H](CCC(N)=O)NC(=O)[C@H](Cc2c[nH]c3ccccc23)NC(=O)[C@H]([C@@H](C)CC)NC1=O [Compound 101] (Ac-EGSAICIWQDWGEHRCTEGK([γGlu-C16 diacid])-NH2; disulfide 6-16)	> 6.30
CC[C@H](C)[C@@H]1NC(=O)[C@@H](NC(=O)[C@H](Cc2ccccc2)NC(=O)[C@H](CCC(=O)O)NC(=O)[C@H](CO)NC(C)=O)CSSC[C@@H](C(=O)N(C)CC(=O)N[C@@H](CCC(=O)O)C(=O)N[C@@H](CCCCN)C(=O)N[C@@H](CCC(=O)NCC(=O)NCC(=O)NCC(=O)N[C@@H](CCCCNC(=O)CC[C@H](NC(=O)CNC(=O)CC[C@H](NC(=O)CCCCCCCCCCCCCCCCC(=O)O)C(=O)O)C(=O)O)C(N)=O)C(=O)O)NC(=O)[C@H](CCCNC(=N)N)NC(=O)[C@H](Cc2c[nH]cn2)NC(=O)[C@H](CCC(=O)O)NC(=O)CNC(=O)[C@H](Cc2c[nH]c3ccccc23)NC(=O)[C@H](CC(=O)O)NC(=O)[C@H](CCC(N)=O)NC(=O)[C@H](Cc2cn(C)c3ccccc23)NC1=O [Compound 132] (Ac-SEFCI[Trp(1-Me)]QDWGEHRC[Sar]EK[γGlu]GGGK([γGlu-Gly-γGlu-C18 diacid])-NH2; disulfide 4-14)	> 7.00
CC[C@H](C)[C@@H]1NC(=O)[C@@H](NC(=O)[C@H](Cc2ccccc2)NC(=O)[C@H](C)NC(=O)[C@H](CO)NC(=O)CNC(=O)[C@H](CCC(=O)O)NC(C)=O)CSSC[C@@H](C(=O)N[C@@H](CCC(=O)O)C(=O)NCC(=O)N[C@@H](CCC(=O)O)C(N)=O)NC(=O)[C@H](CCCNC(=N)N)NC(=O)[C@H](Cc2c[nH]cn2)NC(=O)[C@H](CCC(=O)O)NC(=O)CNC(=O)[C@H](Cc2c[nH]c3ccccc23)NC(=O)[C@H](CC(=O)O)NC(=O)[C@H](CCC(N)=O)NC(=O)[C@H](Cc2cn(C)c3ccccc23)NC1=O [Compound 58] (Ac-EGSAFCI[Trp(1-Me)]QDWGEHRCEGE-NH2; disulfide 6-16)	> 7.00
